According to US9833497B2, “Human originated EGF domain proteins and use of the same” (CHENGDU SOURCEBIO LIMITED-LIABILITY COMPANY, priority 2013, dated 2017):

What was measured:
Assay type in all cases: cell-based
Moraxella catarrhalis = test: MIC against Gram-negative bacteria: Moraxella catarrhalis; conditions: for MIC (μg/mL) M. catarrhalis / MIC against M. catarrhalis: 5×10^5 CFU/mL; for MIC (μg/mL) M. catarrhalis / MIC: M. catarrhalis
In short: (§1)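 Two-fold serial dilutions of each purified human EGF domain protein, three replicate wells per level, were combined with bacteria at a final 5×10^5 CFU/mL in LB. Cultures were shaken at 175 rpm, 37° C. The MIC was taken as the minimum concentration preventing growth.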

Pseudomonas aeruginosa = test: MIC against Gram-negative bacteria: Pseudomonas aeruginosa; conditions: for MIC (μg/mL) P. aeruginosa / MIC against P. aeruginosa: 5×10^5 CFU/mL; for MIC (μg/mL) P. aeruginosa / MIC: P. aeruginosa
In short: as §1

Proteus mirabilis = test: MIC against Gram-negative bacteria: Proteus mirabilis; conditions: for MIC (μg/mL) P. mirabilis / MIC against P. mirabilis: 5×10^5 CFU/mL; for MIC (μg/mL) P. mirabilis / MIC: P. mirabilis
In short: as §1

Aeromonas hydrophila = test: MIC against Gram-negative bacteria: Aeromonas hydrophila; conditions: for MIC (μg/mL) A. hydrophila / MIC against A. hydrophila: 5×10^5 CFU/mL; for MIC (μg/mL) A. hydrophila / MIC: A. hydrophila
In short: as §1

E. coli DH5α = test: Antibacterial activity: MIC and growth curve against E. coli DH5α in 96-well plate; conditions: minimal inhibitory concentration against E. coli DH5α; 96-well plate, 5×10^5 CFU/mL, 37° C., judged after 8 h
In short: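 Log-phase DH5α (OD600 about 0.5, 37° C, 185 rpm in LB) was pelleted, resuspended in fresh LB and seeded at 5×10^5 CFU/mL with recombinant protein at 50, 25 and 12.5 μg/mL (two-fold series), in triplicate. Plates were shaken at 175 rpm, 37° C, and OD600 was read every 30 min. MIC was the lowest concentration with no growth.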

Enterobacter cloacae = test: MIC against Gram-negative bacteria: Enterobacter cloacae; conditions: for MIC (μg/mL) E. cloacae / MIC against E. cloacae: 5×10^5 CFU/mL; for MIC (μg/mL) E. cloacae / MIC: E. cloacae
In short: as §1

E. coli BL21 = test: MIC against Gram-negative bacteria: E. coli BL21; conditions: for MIC (μg/mL) E. coli BL21 / MIC against E. coli BL21: 5×10^5 CFU/mL
In short: as §1

Citrobacter diversus = test: MIC against Gram-negative bacteria: Citrobacter diversus; conditions: for MIC (μg/mL) C. diversus / MIC against C. diversus: 5×10^5 CFU/mL; for MIC (μg/mL) C. diversus / MIC: C. diversus
In short: as §1

Proteus vulgaris = test: MIC against Gram-negative bacteria: Proteus vulgaris; conditions: for MIC (μg/mL) P. vulgaris / MIC against P. vulgaris: 5×10^5 CFU/mL; for MIC (μg/mL) P. vulgaris / MIC: P. vulgaris
In short: as §1

Serratia marcescens = test: MIC against Gram-negative bacteria: Serratia marcescens; conditions: for MIC (μg/mL) S. marcescens / MIC against S. marcescens: 5×10^5 CFU/mL; for MIC (μg/mL) S. marcescens / MIC: S. marcescens
In short: as §1

Klebsiella pneumonia = test: MIC against Gram-negative bacteria: Klebsiella pneumonia; conditions: for MIC (μg/mL) K. pneumonia / MIC against K. pneumonia: 5×10^5 CFU/mL; for MIC (μg/mL) K. pneumonia / MIC: K. pneumonia
In short: as §1

[1] = E. coli BL21, 10 h cultivation at 37° C.

PRT220 (DINECETTNECREDEMCWNYHGGFRCYPRNPCQDPYILTPENRCV; listed as Homo sapiens)
MIC (μg/mL) M. catarrhalis (Moraxella catarrhalis; 10 h cultivation at 37° C.): 12.5 µg/mL | MIC (μg/mL) P. aeruginosa (Pseudomonas aeruginosa; 10 h cultivation at 37° C.): 12.5 µg/mL | MIC (μg/mL) P. mirabilis (Proteus mirabilis; 10 h cultivation at 37° C.): 12.5 µg/mL | MIC (μg/mL) A. hydrophila (Aeromonas hydrophila; 10 h cultivation at 37° C.): 25 µg/mL | MIC (E. coli DH5α): 25 µg/mL | MIC (μg/mL) E. cloacae (Enterobacter cloacae; 10 h cultivation at 37° C.): 12.5 µg/mL | MIC (μg/mL) E. coli BL21 (E. coli BL21; [1]): 25 µg/mL | MIC (μg/mL) C. diversus (Citrobacter diversus; 10 h cultivation at 37° C.): 12.5 µg/mL | MIC (μg/mL) P. vulgaris (Proteus vulgaris; 10 h cultivation at 37° C.): 12.5 µg/mL | MIC (μg/mL) S. marcescens (Serratia marcescens; 10 h cultivation at 37° C.): 50 µg/mL | MIC (μg/mL) K. pneumonia (Klebsiella pneumonia; 10 h cultivation at 37° C.): 25 µg/mL

PRT1371 (GTRACPGDCRGRGRCVDGRCVCNPGFTGEDC; listed as Homo sapiens)
MIC against M. catarrhalis (Moraxella catarrhalis; Moraxella catarrhalis, 10 h cultivation at 37° C.): 12.5 µg/mL | MIC against P. aeruginosa (Pseudomonas aeruginosa; Pseudomonas aeruginosa, 10 h cultivation at 37° C.): 12.5 µg/mL | MIC against P. mirabilis (Proteus mirabilis; Proteus mirabilis, 10 h cultivation at 37° C.): 12.5 µg/mL | MIC against A. hydrophila (Aeromonas hydrophila; Aeromonas hydrophila, 10 h cultivation at 37° C.): 12.5 µg/mL | MIC (E. coli DH5α): 50 µg/mL | MIC against E. cloacae (Enterobacter cloacae; Enterobacter cloacae, 10 h cultivation at 37° C.): 12.5 µg/mL | MIC against E. coli BL21 (E. coli BL21; [1]): 12.5 µg/mL | MIC against C. diversus (Citrobacter diversus; Citrobacter diversus, 10 h cultivation at 37° C.): 100 µg/mL | MIC against P. vulgaris (Proteus vulgaris; Proteus vulgaris, 10 h cultivation at 37° C.): 12.5 µg/mL | MIC against S. marcescens (Serratia marcescens; Serratia marcescens, 10 h cultivation at 37° C.): 12.5 µg/mL | MIC against K. pneumonia (Klebsiella pneumonia; Klebsiella pneumonia, 10 h cultivation at 37° C.): 12.5 µg/mL

PRT870 (CECFGHSNRCSYIDLLNTVICVSCKHNTRGQHCELCRLGYFRNASAQLDDENVCIE; listed as Homo sapiens)
MIC (μg/mL) M. catarrhalis (Moraxella catarrhalis; 10 h cultivation at 37° C.): 50 µg/mL | MIC (μg/mL) P. aeruginosa (Pseudomonas aeruginosa; 10 h cultivation at 37° C.): 100 µg/mL | MIC (μg/mL) P. mirabilis (Proteus mirabilis; 10 h cultivation at 37° C.): 25 µg/mL | MIC (μg/mL) A. hydrophila (Aeromonas hydrophila; 10 h cultivation at 37° C.): 12.5 µg/mL | MIC (E. coli DH5α): 12.5 µg/mL | MIC (μg/mL) E. cloacae (Enterobacter cloacae; 10 h cultivation at 37° C.): 25 µg/mL | MIC (μg/mL) E. coli BL21 (E. coli BL21; [1]): 50 µg/mL | MIC (μg/mL) C. diversus (Citrobacter diversus; 10 h cultivation at 37° C.): 25 µg/mL | MIC (μg/mL) P. vulgaris (Proteus vulgaris; 10 h cultivation at 37° C.): 12.5 µg/mL | MIC (μg/mL) S. marcescens (Serratia marcescens; 10 h cultivation at 37° C.): 50 µg/mL | MIC (μg/mL) K. pneumonia (Klebsiella pneumonia; 10 h cultivation at 37° C.): 50 µg/mL

PRT1042 (SGFFCPSTHSCQNGGVFQTPQGSCSCPPGWMGTICS; listed as Homo sapiens)
MIC (Moraxella catarrhalis; 10 h cultivation at 37° C.): 12.5 µg/mL | MIC (Pseudomonas aeruginosa; 10 h cultivation at 37° C.): 12.5 µg/mL | MIC (Proteus mirabilis; 10 h cultivation at 37° C.): 50 µg/mL | MIC (Aeromonas hydrophila; 10 h cultivation at 37° C.): 50 µg/mL | MIC (E. coli DH5α): 25 µg/mL | MIC (Enterobacter cloacae; 10 h cultivation at 37° C.): 50 µg/mL | MIC (E. coli BL21; [1]): 50 µg/mL | MIC (Citrobacter diversus; 10 h cultivation at 37° C.): 50 µg/mL | MIC (Proteus vulgaris; 10 h cultivation at 37° C.): 25 µg/mL | MIC (Serratia marcescens; 10 h cultivation at 37° C.): 50 µg/mL | MIC (Klebsiella pneumonia; 10 h cultivation at 37° C.): 25 µg/mL

PRT464 (DLDECRVRNLCQHACRNTEGSYQCLCPAGYRLLPSGKNCQ; listed as Homo sapiens)
MIC against M. catarrhalis (Moraxella catarrhalis; 96-well plate, 37° C., 10 h): 25 µg/mL | MIC against P. aeruginosa (Pseudomonas aeruginosa; 96-well plate, 37° C., 10 h): 12.5 µg/mL | MIC against P. mirabilis (Proteus mirabilis; 96-well plate, 37° C., 10 h): 12.5 µg/mL | MIC against A. hydrophila (Aeromonas hydrophila; 96-well plate, 37° C., 10 h): 25 µg/mL | MIC (E. coli DH5α): 12.5 µg/mL | MIC against E. cloacae (Enterobacter cloacae; 96-well plate, 37° C., 10 h): 12.5 µg/mL | MIC against E. coli BL21 (E. coli BL21; 96-well plate, 37° C., 10 h): 50 µg/mL | MIC against C. diversus (Citrobacter diversus; 96-well plate, 37° C., 10 h): 50 µg/mL | MIC against P. vulgaris (Proteus vulgaris; 96-well plate, 37° C., 10 h): 50 µg/mL | MIC against S. marcescens (Serratia marcescens; 96-well plate, 37° C., 10 h): 12.5 µg/mL | MIC against K. pneumonia (Klebsiella pneumonia; 96-well plate, 37° C., 10 h): 50 µg/mL

PRT1013 (LEDPCPPSFCSKRGRCHIQASGRPQCSCMPGWTGEQCQ; listed as Homo sapiens)
MIC (Moraxella catarrhalis; 10 h cultivation at 37° C.): 25 µg/mL | MIC (Pseudomonas aeruginosa; 10 h cultivation at 37° C.): 12.5 µg/mL | MIC (Proteus mirabilis; 10 h cultivation at 37° C.): 12.5 µg/mL | MIC (Aeromonas hydrophila; 10 h cultivation at 37° C.): 12.5 µg/mL | MIC (E. coli DH5α): 12.5 µg/mL | MIC (Enterobacter cloacae; 10 h cultivation at 37° C.): 12.5 µg/mL | MIC (E. coli BL21; [1]): 12.5 µg/mL | MIC (Citrobacter diversus; 10 h cultivation at 37° C.): 12.5 µg/mL | MIC (Proteus vulgaris; 10 h cultivation at 37° C.): 25 µg/mL | MIC (Serratia marcescens; 10 h cultivation at 37° C.): 50 µg/mL | MIC (Klebsiella pneumonia; 10 h cultivation at 37° C.): 25 µg/mL

PRT1227 (NLKLCDASNHCDRHGVCNNFNHCHCEKGYNPPYCQ; listed as Homo sapiens)
MIC against M. catarrhalis (Moraxella catarrhalis; Moraxella catarrhalis, 96-well plate, 37° C., 10 h): 12.5 µg/mL | MIC against P. aeruginosa (Pseudomonas aeruginosa; Pseudomonas aeruginosa, 96-well plate, 37° C., 10 h): 12.5 µg/mL | MIC against P. mirabilis (Proteus mirabilis; Proteus mirabilis, 96-well plate, 37° C., 10 h): 12.5 µg/mL | MIC against A. hydrophila (Aeromonas hydrophila; Aeromonas hydrophila, 96-well plate, 37° C., 10 h): 12.5 µg/mL | MIC (E. coli DH5α): 50 µg/mL | MIC against E. cloacae (Enterobacter cloacae; Enterobacter cloacae, 96-well plate, 37° C., 10 h): 12.5 µg/mL | MIC against E. coli BL21 (E. coli BL21; E. coli BL21, 96-well plate, 37° C., 10 h): 25 µg/mL | MIC against C. diversus (Citrobacter diversus; Citrobacter diversus, 96-well plate, 37° C., 10 h): 12.5 µg/mL | MIC against P. vulgaris (Proteus vulgaris; Proteus vulgaris, 96-well plate, 37° C., 10 h): 25 µg/mL | MIC against S. marcescens (Serratia marcescens; Serratia marcescens, 96-well plate, 37° C., 10 h): 12.5 µg/mL | MIC against K. pneumonia (Klebsiella pneumonia; Klebsiella pneumonia, 96-well plate, 37° C., 10 h): 25 µg/mL
